Laboratory results: US9708314B2, “Heterocyclic amide compound” (NISSAN CHEMICAL INDUSTRIES, LTD., priority 2013, dated 2017)

How the values were obtained:
Format in all cases: in vivo
[1] = tested on: directly sowed Oryza sativa; assay: Test Example 3: effect on crop by application to foliage (Wagner pot, water depth 0.1-0.5 cm); conditions: Nineteenth Table; application herbicide amount 320 g/ha
Method in brief: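 Seeds were sown in alluvial soil in Wagner pots, grown for 14 days at 25–30 °C, then sprayed uniformly on foliage with the emulsified compound diluted to a given rate per hectare. Injury was graded three weeks after treatment from 0 (≤5%) to 5 (≥90%).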

Setaria viridis = assay: Test Example 4: herbicidal effect by application to foliage (diluvial soil, plastic box); conditions: application to foliage, application herbicide amount 320 g/ha
Method in brief: (§1)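 Seeds sown in sterilized diluvial soil, covered ~1.5 cm, grown 14 days in greenhouse at 25° C. to 30° C. Emulsion formulation diluted in water to set rate (g/ha) and sprayed onto stems and leaves. Effect scored visually 3 weeks later on 0–5 scale (5 = ≥90% herbicidal ratio, 0 = ≤5%).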

Digitaria ciliaris = assay: as above; conditions: application to foliage, application herbicide amount 320 g/ha
Method in brief: as §1

Stellaria media = assay: as above; conditions: application to foliage, application herbicide amount 320 g/ha
Method in brief: as §1

Lolium multiflorum Lam. = assay: as above; conditions: application to foliage, application herbicide amount 320 g/ha
Method in brief: as §1

Amaranthus retroflexus = assay: as above; conditions: application to foliage, application herbicide amount 320 g/ha
Method in brief: as §1

Galium spurium = assay: as above; conditions: application to foliage, application herbicide amount 320 g/ha
Method in brief: as §1

Alopecurus myosuroides = assay: as above; conditions: application to foliage, application herbicide amount 320 g/ha
Method in brief: as §1

Apera spica-venti. = assay: as above; conditions: application to foliage, application herbicide amount 320 g/ha
Method in brief: as §1

Avena fatua = assay: as above; conditions: application to foliage, application herbicide amount 320 g/ha
Method in brief: as §1

Abutilon theophrasti = assay: as above; conditions: application to foliage, application herbicide amount 320 g/ha
Method in brief: as §1

Veronica persica = assay: as above; conditions: application to foliage, application herbicide amount 320 g/ha
Method in brief: as §1

Structure (SMILES)	b (directly sowed Oryza sativa) effect on crop grade [1]	G (Setaria viridis) herbicidal effect (Setaria viridis)	F (Digitaria ciliaris) herbicidal effect (Digitaria ciliaris)	P (Stellaria media) herbicidal effect (Stellaria media)	K (Lolium multiflorum Lam.) herbicidal effect (Lolium multiflorum Lam.)	N (Amaranthus retroflexus) herbicidal effect (Amaranthus retroflexus)	Q (Galium spurium) herbicidal effect (Galium spurium)	J (Alopecurus myosuroides) herbicidal effect (Alopecurus myosuroides)	L (Apera spica-venti.) herbicidal effect (Apera spica-venti.)	I (Avena fatua) herbicidal effect (Avena fatua)	M (Abutilon theophrasti) herbicidal effect (Abutilon theophrasti)	R (Veronica persica) herbicidal effect (Veronica persica)
CCSc1nnc2c(C(=O)Nc3nnc(C)o3)ccc(C(F)(F)F)n12 [1-032]	2 (Herbicidal ratio of 20% or more and less than 40%)	5 (Herbicidal ratio of 90% or more (almost completely withered))	5 (Herbicidal ratio of 90% or more (almost completely withered))	5 (Herbicidal ratio of 90% or more (almost completely withered))	1 (Herbicidal ratio of 5% or more and less than 20%)	5 (Herbicidal ratio of 90% or more (almost completely withered))	2 (Herbicidal ratio of 20% or more and less than 40%)	1 (Herbicidal ratio of 5% or more and less than 20%)	2 (Herbicidal ratio of 20% or more and less than 40%)	2 (Herbicidal ratio of 20% or more and less than 40%)	5 (Herbicidal ratio of 90% or more (almost completely withered))	4 (Herbicidal ratio of 70% or more and less than 90%)
Cc1nnc(NC(=O)c2ccc(C(F)(F)F)n3c(SC(C)C)nnc23)o1 [1-033]	1 (Herbicidal ratio of 5% or more and less than 20%)	5 (Herbicidal ratio of 90% or more (almost completely withered))	5 (Herbicidal ratio of 90% or more (almost completely withered))	5 (Herbicidal ratio of 90% or more (almost completely withered))	1 (Herbicidal ratio of 5% or more and less than 20%)	5 (Herbicidal ratio of 90% or more (almost completely withered))	3 (Herbicidal ratio of 40% or more and less than 70%)	1 (Herbicidal ratio of 5% or more and less than 20%)	2 (Herbicidal ratio of 20% or more and less than 40%)	2 (Herbicidal ratio of 20% or more and less than 40%)	5 (Herbicidal ratio of 90% or more (almost completely withered))	5 (Herbicidal ratio of 90% or more (almost completely withered))
CC[S+]([O-])c1nnc2c(C(=O)Nc3nnc(C)o3)ccc(C(F)(F)F)n12 (stereo not drawn) [1-034]	5 (Herbicidal ratio of 90% or more (almost completely withered))	5 (Herbicidal ratio of 90% or more (almost completely withered))	5 (Herbicidal ratio of 90% or more (almost completely withered))	5 (Herbicidal ratio of 90% or more (almost completely withered))	3 (Herbicidal ratio of 40% or more and less than 70%)	5 (Herbicidal ratio of 90% or more (almost completely withered))	3 (Herbicidal ratio of 40% or more and less than 70%)	1 (Herbicidal ratio of 5% or more and less than 20%)	3 (Herbicidal ratio of 40% or more and less than 70%)	3 (Herbicidal ratio of 40% or more and less than 70%)	5 (Herbicidal ratio of 90% or more (almost completely withered))	5 (Herbicidal ratio of 90% or more (almost completely withered))
Cc1nnc(NC(=O)c2ccc(C(F)(F)F)n3c([S+]([O-])C(C)C)nnc23)o1 (stereo not drawn) [1-035]	4 (Herbicidal ratio of 70% or more and less than 90%)	5 (Herbicidal ratio of 90% or more (almost completely withered))	5 (Herbicidal ratio of 90% or more (almost completely withered))	5 (Herbicidal ratio of 90% or more (almost completely withered))	2 (Herbicidal ratio of 20% or more and less than 40%)	5 (Herbicidal ratio of 90% or more (almost completely withered))	2 (Herbicidal ratio of 20% or more and less than 40%)	2 (Herbicidal ratio of 20% or more and less than 40%)	3 (Herbicidal ratio of 40% or more and less than 70%)	2 (Herbicidal ratio of 20% or more and less than 40%)	5 (Herbicidal ratio of 90% or more (almost completely withered))	5 (Herbicidal ratio of 90% or more (almost completely withered))
Cc1nnc(NC(=O)c2ccc(C(F)(F)F)n3c(C[S+](C)[O-])nnc23)o1 (stereo not drawn) [1-036]	4 (Herbicidal ratio of 70% or more and less than 90%)	5 (Herbicidal ratio of 90% or more (almost completely withered))	5 (Herbicidal ratio of 90% or more (almost completely withered))	5 (Herbicidal ratio of 90% or more (almost completely withered))	3 (Herbicidal ratio of 40% or more and less than 70%)	5 (Herbicidal ratio of 90% or more (almost completely withered))	4 (Herbicidal ratio of 70% or more and less than 90%)	3 (Herbicidal ratio of 40% or more and less than 70%)	4 (Herbicidal ratio of 70% or more and less than 90%)	4 (Herbicidal ratio of 70% or more and less than 90%)	5 (Herbicidal ratio of 90% or more (almost completely withered))	5 (Herbicidal ratio of 90% or more (almost completely withered))
Cc1nnc(NC(=O)c2ccc(C(F)(F)F)n3c(CS(C)(=O)=O)nnc23)o1 [1-037]	2 (Herbicidal ratio of 20% or more and less than 40%)	4 (Herbicidal ratio of 70% or more and less than 90%)	5 (Herbicidal ratio of 90% or more (almost completely withered))	4 (Herbicidal ratio of 70% or more and less than 90%)	2 (Herbicidal ratio of 20% or more and less than 40%)	5 (Herbicidal ratio of 90% or more (almost completely withered))	4 (Herbicidal ratio of 70% or more and less than 90%)	2 (Herbicidal ratio of 20% or more and less than 40%)	3 (Herbicidal ratio of 40% or more and less than 70%)	3 (Herbicidal ratio of 40% or more and less than 70%)	5 (Herbicidal ratio of 90% or more (almost completely withered))	5 (Herbicidal ratio of 90% or more (almost completely withered))
Cc1nnc(NC(=O)c2ccc(C(F)(F)F)n3c(C[S+]([O-])CC(F)(F)F)nnc23)o1 (stereo not drawn) [1-038]	2 (Herbicidal ratio of 20% or more and less than 40%)	5 (Herbicidal ratio of 90% or more (almost completely withered))	5 (Herbicidal ratio of 90% or more (almost completely withered))	5 (Herbicidal ratio of 90% or more (almost completely withered))	1 (Herbicidal ratio of 5% or more and less than 20%)	5 (Herbicidal ratio of 90% or more (almost completely withered))	3 (Herbicidal ratio of 40% or more and less than 70%)	1 (Herbicidal ratio of 5% or more and less than 20%)	2 (Herbicidal ratio of 20% or more and less than 40%)	3 (Herbicidal ratio of 40% or more and less than 70%)	5 (Herbicidal ratio of 90% or more (almost completely withered))	5 (Herbicidal ratio of 90% or more (almost completely withered))
Cc1nnc(NC(=O)c2ccc(C(F)(F)F)n3c(S(C)(=O)=O)nnc23)o1 [1-040]	3 (Herbicidal ratio of 40% or more and less than 70%)	4 (Herbicidal ratio of 70% or more and less than 90%)	5 (Herbicidal ratio of 90% or more (almost completely withered))	5 (Herbicidal ratio of 90% or more (almost completely withered))	3 (Herbicidal ratio of 40% or more and less than 70%)	5 (Herbicidal ratio of 90% or more (almost completely withered))	3 (Herbicidal ratio of 40% or more and less than 70%)	3 (Herbicidal ratio of 40% or more and less than 70%)	4 (Herbicidal ratio of 70% or more and less than 90%)	3 (Herbicidal ratio of 40% or more and less than 70%)	5 (Herbicidal ratio of 90% or more (almost completely withered))	5 (Herbicidal ratio of 90% or more (almost completely withered))
